Patent US20230416262A1, “TRPML MODULATORS” (Casma Therapeutics, Inc., priority 2020, published 2023)
pEC50: −log10 of the molar value.

Key:
[1] = test system: TFEB; assay: TFEB nuclear translocation assay; format: cell-based; conditions: Homo sapiens; HeLa wt or HeLa TRPML1 KO cells, treated for 2 hrs; ratio of nuclear to ring-region TFEB intensity
Procedure, shortened: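 HeLa wild-type or TRPML1 KO cells treated 2 h with compound at 37 °C, PFA-fixed, immunostained for TFEB (Alexa 488) with Hoechst nuclei. Imaged at ×20, four fields/well. Value is ratio of nuclear to perinuclear-ring TFEB intensity, with nuclei counts.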

[2] = test system: THP-1 cells; assay: Lamp1 lysosomal exocytosis assay; format: cell-based; conditions: Homo sapiens, 55 min, 55 min incubation, top dose 20 μM
Procedure, shortened: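 THP-1 cells (1e5/well) exposed to a 7-point 3-fold compound series, top final 20 μM, for 55 min at 37°C. Surface Lamp1 then stained with Lamp1-PE on ice in buffer containing 80 μM Dynasore, and read by flow cytometry as PE geometric mean on live, sytox-negative singlets.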

| Structure (SMILES) | pEC50 [1] | pEC50 [2] |
| --- | --- | --- |
| CN(C(=O)N1CC2(CCN(C(=O)OCc3ccccc3)CC2)c2ccccc21)c1ccc(C(F)F)cc1 [Compound I-248, benzyl 1-((4-(difluoromethyl)phenyl)(methyl)carbamoyl)spiro[indoline-3,4′-piperidine]-1′-carboxylate] | ≤ 5.00 | ≤ 5.30 |
| O=C(OCc1ccccc1)N1CCC2(CC1)CN(C(=O)Oc1ccc(C(F)F)cc1)c1ccccc12 [Compound I-249, 1′-benzyl 1-(4-(difluoromethyl)phenyl) spiro[indoline-3,4′-piperidine]-1,1′-dicarboxylate] | ≤ 5.00 | ≤ 5.30 |
| O=C(OCc1ccccc1)N1CCC2(CC1)CN(S(=O)(=O)Cc1ccc(C(F)F)cc1)c1ccccc12 [Compound I-250, benzyl 1-((4-(difluoromethyl)benzyl)sulfonyl)spiro[indoline-3,4′-piperidine]-1′-carboxylate] | ≥ 5.70 | ≥ 6.30 |
